Data: ChEMBL document CHEMBL3098093, “Synthesis, modification and docking studies of 5-sulfonyl isatin derivatives as SARS-CoV 3C-like protease inhibitors” (Bioorg Med Chem, 2014)
pIC50: −log10 of the molar value.

Each molecule was assayed against Replicase polyprotein 1ab (Severe acute respiratory syndrome-related coronavirus) (UniProt P0C6X7) (assay: Inhibition of GST-tagged SARS coronavirus 3C-like protease at 1 mM by FRET assay).

| Compound | inhibition |
| --- | --- |
| COc1ccc2c(c1)C(=O)C(=O)N2 | 95.3% |
| O=C1Nc2ccc(Br)cc2C1=O | 90.5% |
| CN1CCN(S(=O)(=O)c2ccc3c(c2)C(=O)C(=O)N3)CC1 | 98.6% |
| O=C1Nc2ccc(C(=O)O)cc2C1=O | 44.8% |
| O=C1Nc2ccc(Cl)cc2C1=O | 84.2% |
| O=C1Nc2cc3c(cc2C1=O)CCC3 | 79.4% |
| O=C1Nc2ccc([N+](=O)[O-])cc2C1=O | 94% |
| CC(=O)c1ccc2c(c1)C(=O)C(=O)N2 | 95.4% |
| O=C1Nc2ccc(I)cc2C1=O | 86.7% |
| O=C1Nc2cccc(Br)c2C1=O | 68.4% |
| O=C1Nc2ccc(F)cc2C1=O | 82.5% |

Each molecule was assayed against Replicase polyprotein 1ab (Severe acute respiratory syndrome-related coronavirus, UniProt P0C6X7) (assay: Inhibition of GST-tagged SARS coronavirus 3C-like protease by FRET assay).

| Compound | pIC50 |
| --- | --- |
| CC1CCN(S(=O)(=O)c2ccc3c(c2)C(=O)C(=O)N3)CC1 | 5.93 |
| CC1CCCCN1S(=O)(=O)c1ccc2c(c1)C(=O)C(=O)N2 (stereo not drawn) | 5.65 |
| CC1CC(C)CN(S(=O)(=O)c2ccc3c(c2)C(=O)C(=O)N3)C1 (stereo not drawn) | 5.37 |
| CC1CC(C)CN(S(=O)(=O)c2ccc3c(c2)C(=O)C(=O)N3C)C1 (stereo not drawn) | 5.55 |
| CN1CCN(S(=O)(=O)c2ccc3c(c2)C(=O)C(=O)N3)CC1 | 4.11 |
| O=C1C(=O)N(Cc2ccccc2)c2ccc(S(=O)(=O)N3CCOCC3)cc21 | 4.86 |
| O=C1Nc2ccc(S(=O)(=O)N3CCCCC3)cc2C1=O | 5.35 |
| O=C1Nc2ccc(S(=O)(=O)N3CCN(C(=O)c4ccco4)CC3)cc2C1=O | 5.00 |
| CN1CCN(S(=O)(=O)c2ccc3c(c2)C(=O)C(=O)N3C)CC1 | 4.93 |
| O=C1C(=O)N(Cc2ccccc2)c2ccc(S(=O)(=O)N3CCCCC3)cc21 | 4.85 |
| O=C1Nc2ccc(S(=O)(=O)N3CCN(c4cccc(C(F)(F)F)c4)CC3)cc2C1=O | < 4.00 |
| O=C1Nc2ccc(S(=O)(=O)N3CCN(c4ccc(F)cc4)CC3)cc2C1=O | < 4.00 |
| CN1C(=O)C(=O)c2cc(S(=O)(=O)N3CCN(CCc4ccccc4)CC3)ccc21 | 4.86 |
| O=C1Nc2ccc(S(=O)(=O)N3CCOCC3)cc2C1=O | 4.90 |
| O=C1Nc2ccc(S(=O)(=O)N3CCN(CCc4ccccc4)CC3)cc2C1=O | 4.46 |
| CC1CCN(S(=O)(=O)c2ccc3c(c2)C(=O)C(=O)N3Cc2ccc3ccccc3c2)CC1 | 4.75 |
| CC1CCN(S(=O)(=O)c2ccc3c(c2)C(=O)C(=O)N3Cc2ccccc2)CC1 | 5.77 |
| CN1CCN(S(=O)(=O)c2ccc3c(c2)C(=O)C(=O)N3Cc2ccc3ccccc3c2)CC1 | 4.08 |
| CC1CCN(S(=O)(=O)c2ccc3c(c2)C(=O)C(=O)N3C)CC1 | 5.98 |
| CC1CC(C)CN(S(=O)(=O)c2ccc3c(c2)C(=O)C(=O)N3Cc2ccccc2)C1 (stereo not drawn) | 5.33 |
| CN1C(=O)C(=O)c2cc(S(=O)(=O)N3CCN(c4ccccn4)CC3)ccc21 | 5.26 |
| O=C1Nc2ccc(S(=O)(=O)N3CCN(Cc4cccc(Cl)c4)CC3)cc2C1=O | 4.50 |
| O=C1Nc2ccc(S(=O)(=O)N3CCN(c4ccccn4)CC3)cc2C1=O | 4.29 |
| CN1C(=O)C(=O)c2cc(S(=O)(=O)N3CCOCC3)ccc21 | 5.00 |
| O=C1C(=O)N(Cc2ccc3ccccc3c2)c2ccc(S(=O)(=O)N3CCOCC3)cc21 | 4.40 |
| CN1CCN(S(=O)(=O)c2ccc3c(c2)C(=O)C(=O)N3Cc2ccccc2)CC1 | 4.17 |
| COc1cc(CN2CCN(S(=O)(=O)c3ccc4c(c3)C(=O)C(=O)N4)CC2)cc(OC)c1OC | 4.49 |
